Data reported in paper PMC7409209, “Biosynthesis and Antimicrobial Activity of Pseudodesmin and Viscosinamide Cyclic Lipopeptides Produced by Pseudomonads Associated with the Cocoyam Rhizosphere” (Microorganisms, 2020).

Columns and labels:
P. myriotylum = assay: Pathogen perception experiment (one CLP droplet); format: cell-based, Pythium myriotylum; conditions: one 15 µL CLP droplet 2 cm from the plug, other side blank
Procedure: (§1) For pathogen perception experiments, the afore-described plug-CLP droplet method was employed with slight modifications. Only one 15 µL CLP droplet was introduced 2 cm away from the fungal plug, while the other side of the plug remained blank. Results were assessed by observing whether or not the pathogen only grew towards the CLP droplet or in both directions. Pathogen-CLP interaction was evaluated microscopically and pictures were taken.

R. solani [1] = assay: Pathogen perception experiment (one CLP droplet); format: cell-based; conditions: one 15 µL CLP droplet 2 cm from the plug, other side blank
Procedure: as §1

P. myriotylum CMR1 = assay: Fungal plug-CLP droplet assay (growth inhibition and microscopy); format: cell-based, Pythium myriotylum; conditions: for Effect on growth of P. myriotylum mycelium (inhibition zone): all concentrations tested (100 nM, 1, 10, 25, 50 µM), 48 h, 28 °C, n = 5
From the text: (§2) The cocoyam rhizosphere isolate, P. myriotylum CMR1 [42], was maintained on Potato Dextrose Agar (PDA) for three days prior to use. The bean root rot pathogen, R. solani AG2-2 CuHav-Rs18 [43], was maintained on the same media for four days before use. The fungal plug-CLP method was used. Sterile microscopic glass slides were covered with a thin, flat layer of water agar (Bacto agar; Difco) and placed in a plastic Petri dish containing a moist sterile filter paper. An agar plug (diameter = 5 mm) taken from an actively growing colony of R. solani or P. myriotylum and placed on top at the center of each glass slide. Stock solutions of purified CLPs were made by dissolution in Dimethyl sulfoxide (DMSO). Serial dilutions of […], 1 µM, 10 µM, 25 µM and 50 µM were prepared using sterile milliQ water. For each dilution, two droplets (15 μL each) of purified CLP (WLIP, pseudodesmin or viscosinamide) were placed on two sides of the glass slide (about 2 cm from the fungal plug). For the control treatment, 0.5% DMSO was used. All plates were incubated for 48 h (P. myriotylum) or 72 h (R. solani) at 28 °C before evaluation under an Olympus BX51 microscope. The images were processed using TopView software. Using a vernier caliper, the inhibition zones were measured as the distance between the CLP droplet and the growing edge of the pathogen. The growth inhibition effect of pure compounds towards both plant pathogens was expressed relative to the mycelial growth in the control. Five replicates of each slide were used. Representative photos are shown.

[2] = tested on: R. solani AG2-2 CuHav-Rs18; assay: as above; format: cell-based
From the text: as §2

[3] = tested on: six Gram-positive bacterial strains; conditions: cited from earlier work
From the text: Viscosinamide and pseudodesmin CLPs are neutral, have similar amino acid (AA) composition and only differ from each other by the stereochemistry on the 5th AA [30]. […] A recent study tested the antibacterial activity of 20 novel synthesized pseudodesmin A analogs and reported a mode of action determined by the macrocycle closed by an ester bond and the critical length of the β-OH fatty acid chain capping the N-terminus.

R. solani [4] = conditions: cited from earlier work
From the text: (§3) Antimicrobial activities of Viscosin-group CLPs have been reported, including antibacterial activity. […] When challenged with viscosinamide, cellular changes were detected in the mycelia of both P. ultimum and R. solani.

Pythium ultimum = conditions: cited from earlier work
From the text: as §3

[5] = purified viscosinamide produced by P. fluorescens DR54

White Line-Inducing Principle [WLIP, reference compound]
Perception of the CLP by P. myriotylum (direction of growth) (P. myriotylum): grew evenly on sides with or without the CLP
Perception of the CLP by R. solani (direction of growth) (R. solani [1]): appeared not to recognize WLIP but grew towards it until hyphal disintegration occurred
Effect on growth of P. myriotylum mycelium (inhibition zone) (P. myriotylum CMR1): visual inhibition zones that could not be easily measured
Hyphal morphology of P. myriotylum (microscopy) (P. myriotylum CMR1; concentration not specified): hyphal disintegration, timely evasion and an absence of branching
Visual inhibition zone, R. solani AG 2-2 ([2]; 100 nM, 72 h, 28 °C): slight inhibition zone
Visual inhibition zone, R. solani AG 2-2 ([2]; highest concentration (50 µM)): strong inhibition
Hyphal morphology of R. solani (microscopy) ([2]; hyphae growing towards the compound, concentration not specified): increased branching as they grew in the direction of the compound
Visual inhibition zone, R. solani AG 2-2 ([2]; intermediate concentrations): unclear
Hyphal morphology of R. solani (microscopy) ([2]; upon contact with the compound, concentration not specified): disintegration of hyphae was observed

pseudodesmin A
Antibacterial activity, pseudodesmin compared with viscosinamide [3]: equal activity
Hyphal morphology of P. myriotylum (microscopy) (P. myriotylum CMR1; 100 nM, 10 µM and 25 µM): increased/hyper branching, hyphal distortion and CLP evasion
Effect on growth of P. myriotylum mycelium (inhibition zone) (P. myriotylum CMR1): significantly inhibited pathogen growth
Visual inhibition zone, R. solani AG 2-2 ([2]; 100 nM, 72 h, 28 °C): visual inhibition zone
Hyphal morphology of R. solani (microscopy) ([2]; 0.1, 1, 10, 25 and 50 µM): CLP evasion by the pathogen, hyphae distortion and the disintegration of hyphae with debris observed on the slide
Visual inhibition zone, R. solani AG 2-2 ([2]; higher concentrations of 1, 10, 25 and 50 µM, compared with 100 nM): became enhanced

viscosinamide A
Cellular changes in mycelia of R. solani (R. solani [4]; fluorescent stains): extensive branching, increased hyphal septation and swelling and decreased the hydrophobicity of cell walls and membranes
Effect on growth of R. solani (R. solani [4]; [5]): reduced fungal growth and the aerial mycelium development
Cellular changes in mycelia of P. ultimum (Pythium ultimum; fluorescent stains): extensive branching, increased hyphal septation and swelling and decreased the hydrophobicity of cell walls and membranes
Effect on growth of Pythium ultimum (Pythium ultimum; [5]): reduced fungal growth and the aerial mycelium development
Antibacterial activity, pseudodesmin compared with viscosinamide [3]: equal activity
Hyphal morphology of P. myriotylum (microscopy) (P. myriotylum CMR1; 50 µM): enhanced elongation of primary mycelium and the formation of convergent structures by mycelia
Effect on growth of P. myriotylum mycelium (inhibition zone) (P. myriotylum CMR1): enhanced the growth of P. myriotylum mycelium without any visible inhibition zone
Hyphal morphology of R. solani (microscopy) ([2]; 50 µM): mycelia distortion and disintegration was observed in combination with a coordinated formation of melanized structures by multiple primary hyphae
Visual inhibition zone, R. solani AG 2-2 ([2]; all concentrations tested (100 nM-50 µM)): no visual inhibition zone was observed in treatments with viscosinamide except at 10 µM
Hyphal morphology of R. solani (microscopy) ([2]; all concentrations tested except 50 µM): CLP evasion, hyphal distortion and the rupturing of contents
